# According to patent publication US20170128518A1, “METHODS AND MATERIALS FOR IDENTIFYING AND TREATING MAMMALS RESISTANT TO PROTEASOME INHIBITOR TREATMENTS” (Mayo Foundation for Medical Education and Research, priority 2014, published 2017):
# Entries after “also recorded” stand apart in the source; their conditions may differ.
# Tests used:
# MWCL-1 cells = test: MTS viability assay, MWCL-1; assay type: cell-based, human; details: 72-h MTS assay
# Method: (§1) Twenty thousand cells/200 μl in quadruplicates were incubated with serially diluted b-AP15 (1-1000 nmol/l) in 96-well plates at 37° C. for 72 hours. MTS (3-(4,5-dimethylthiazol-2-yl)-5-(3-carboxymethoxyphenyl)-2-(4-sulfophenyl)-2H-tetrazolium) reagent (Molecular Probes, Eugene, Oreg.) was added at 40 μl/well and the plates were further incubated at 37° C. for 3 hours and the developed color was read at 490 nm using a BioTek synergy HT plate reader against blanks with no cells.
# WT and BR WM cells = test: Mitochondrial outer membrane permeability (TMRM), WM cell lines; assay type: cell-based, human
# Method: (§2) Cells were treated with different agents for 48 hours and assessed for MOMP using tetramethylrhodamine methyl ester [TMRM] (Life Technologies). TMRM was directly added to the cell cultures at 100 nmol/1 concentrations and incubated at 37° C. in the dark for 15 minutes. At the end of the incubation, cells were washed twice with cold PBS containing 2% FBS and analyzed. The cells were washed for fluorescence (FL2) and analyzed by BD Accuri, the C6 flow cytometer and its software. Data from at least 20,000 events per sample were collected and analyzed. TMRM-negative (%) cells were calculated to determine % MOMP.
# BCWM.1 cells = test: Mitochondrial outer membrane permeability (TMRM), BCWM.1; assay type: cell-based, human
# Method: FIG. 19 is a pair of histograms showing MOMP in representative WM models±b-AP15 treatment (BCWM.1 and BCWM.1/BR cells; one WT with its respective BR subclone). Black histogram represents control. Lines represent a shift in MOMP.
# as §2
# MWCL-1/BR = test: MTS viability assay, MWCL-1/BR; assay type: cell-based, human; details: 72-h MTS assay, MWCL-1B/BR
# Method: as §1
# BCWM.1/BR = test: MTS viability assay, BCWM.1/BR; assay type: cell-based, human; details: 72-h MTS assay
# Method: FIGS. 4A-4D show the characterization of BR WM models, established by subjecting WM cancer cell lines (n=3) chronic drug exposure. […] FIG. 4C is a graph plotting relative fluorescence units in an assay to examine PSMB5 enzyme function by flow cytometry.
# as §1
# [1] = system: CD19+/CD138+ WM cells from human patients; test: Annexin-V apoptosis assay, primary patient-derived WM cells; assay type: cell-based
# Method: (§3) FIGS. 12A-12D are a series of graphs and Western blots showing b-AP15 induction of tumor-specific apoptosis in WM cell lines and primary patient-derived WM cells. FIG. 12A is a graph plotting cell death as a percentage of control cell death for all available WM cell lines (n=6, WT and BR derivatives) after treatment with the indicated concentrations of b-AP15, followed by staining with annexin-V and propidium iodide and then flow cytometry to examine apoptosis. […] Each experiment was conducted a minimum of three times with control cells (no drug treatment) showing a viability ([…] and propidium iodide-negative population) of >85%. Following treatment, the percentage of cells affected by b-AP15 was calculated by normalizing data from treated cells relative to the control (untreated) cells. […]
# (§4) Apoptosis was measured using the Annexin V binding assay kit from BD Biosciences according to the manufacturer's instructions. […] Fluorescein isothiocycanate (FITC)-labelled Annexin V (5 μl) and propidium iodide (10μ were added to each sample and incubated in the dark for 15 minutes at room temperature. The cells were subsequently analyzed by flow cytometry using BD Accuri, the C6 flow cytometer and its software. Data from 10,000 events per sample were collected and analyzed.
# [2] = system: NF-κB reporter in HEK293 cells expressing MYD88 L265P; test: NF-κB luciferase reporter assay; assay type: cell-based, human; details: 24 hours; 0.5 μmol/l
# Method: HEK293 cells expressing MYD88 L265P were generated as described elsewhere (Ansell et al., Blood Cancer J, 4:e183, 2014). Cells were transiently transfected with 0.5 ng Renilla and 0.25 μg of a pNFκB-luciferase reporter plasmid/1.0×10^6 cells. b-AP15 was added to each well at the indicated doses; after 24 hours, luciferase activity was measured in cell extracts and normalized against Renilla with the Dual Luciferase Kit (Promega, Madison, Wis.).
# RPCI-WM1 = test: MTS viability assay, RPCI-WM1; assay type: cell-based, human; details: 72-h MTS assay
# Method: as §1
# RPCI-WM1/BR = test: MTS viability assay, RPCI-WM1/BR; assay type: cell-based, human; details: 72-h MTS assay
# Method: as §1
# [3] = target: T1, 20S proteasome b5 subunit (Homo sapiens, UniProt P28074); test: Proteasomal activity assay, chymotrypsin-like (LLVY-AMC), WM cells; assay type: biochemical; details: 10 nmol/l; WT and BR WM cells
# T1 construct: Cells were lysed at 4×10^6 cells/ml in proteasomal activity assay buffer; endogenous in cells; host or cells: BCWM.1, MWCL-1, RPCI-WM1 and their BR subclones (lysates)
# T1 sequence (P28074 60-263): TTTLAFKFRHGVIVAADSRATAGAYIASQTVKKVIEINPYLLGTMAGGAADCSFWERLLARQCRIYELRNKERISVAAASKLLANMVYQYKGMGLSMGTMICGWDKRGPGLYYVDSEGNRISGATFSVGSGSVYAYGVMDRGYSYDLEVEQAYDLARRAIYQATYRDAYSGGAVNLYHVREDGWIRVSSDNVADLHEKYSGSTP
# Method: FIGS. 10A and 10B are a series of graphs plotting the effect of b-AP15 treatment on 20S proteasome, b5-subunit (chymotrypsin-like) catalytic activity in WT and BR WM cells.
# Cells were lysed at 4×10^6 cells/ml in proteasomal activity assay buffer [assay buffer; 25 mmol/1 HEPES buffer, pH7.5 containing 0.5 mmol/1 EDTA, 0.05% Nonidet P-40, 0.01% sodium dodecyl sulfate (SDS)] and immediately used in the assay. Enzyme reactions were performed in 96-well plates with 100 μl of final volume containing […] fluorogenic peptide substrates. The substrates used were LLVY-AMC for chymotrypsin like activity, LLE-AMC for caspase-like activity and LRR-AMC for trypsin-like activity. Reactions were incubated at 37° C. for 1 hour and fluorescence was measured at 360/460 using a BioTek synergy HT plate reader (BioTek, Winooski, Vt.).
# [4] = system: WM cell lines (WT and BR); test: Annexin-V apoptosis assay, WM cell lines; assay type: cell-based, human; details: 0.64 μmol/l, 12 hours
# Method: as §3, §4
# BCWM.1/BR cells = test: Annexin-V apoptosis assay, BCWM.1/BR; assay type: cell-based, human
# Method: FIG. 18 is a series of representative heat density plots showing Annexin-V staining in BCWM.1 and BCWM.1/BR±b-AP15 treatment, indicating about 46% cell death in BCWM.1 cells (top panels) and about 42% cell death in BCWM.1/BR cells (bottom panels).
# Apoptosis was measured using the Annexin V binding assay kit from BD Biosciences according to the manufacturer's instructions. Briefly, at the end of the treatment, cells were washed with PBS and 1×10^6 cells were re-suspended in 100 μl of binding buffer. Fluorescein isothiocycanate (FITC)-labelled Annexin V (5 μl) and propidium iodide (10μ were added to each sample and incubated in the dark for 15 minutes at room temperature. The cells were subsequently analyzed by flow cytometry using BD Accuri, the C6 flow cytometer and its software. Data from 10,000 events per sample were collected and analyzed.
compound,measurement,setting,value
C=CC(=O)N1C/C(=C\c2ccc([N+](=O)[O-])cc2)C(=O)/C(=C/c2ccc([N+](=O)[O-])cc2)C1 [b-AP15],IC50,MWCL-1 cells,7 nM
same,MOMP,WT and BR WM cells,significantly induced
same,increase in MOMP,BCWM.1 cells,57%
same,IC50,MWCL-1/BR,3 nM
same,IC50,BCWM.1/BR,16 nM
same,apoptosis (annexin-V positivity),"[1]; 0.5 μmol/l, 12 hours",Significant annexin-V positivity; also recorded: Robust apoptotic cell death
same,cells undergoing total loss of viability,[1]; 1 μmol/l,> 90%
same,NF-κB luciferase reporter activity,[2],significantly reduced; also recorded: significant reduction
same,IC50,RPCI-WM1,16 nM
same,IC50,RPCI-WM1/BR,57 nM
same,chymotrypsin-like activity (LLVY) of the b5 subunit,[3],did not alter chymotryptic activity; also recorded: no loss of the chymotrypsin-like activity
same,WM cells experiencing apoptosis,[4],approximately 50%
same,cell death (Annexin-V staining),BCWM.1/BR cells,about 42%
